Measurements: ChEMBL document CHEMBL1201862, “PubChem BioAssay data set” (2004)
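All cell lines were grown in 96-well plates and treated with compound for 48 hours. Abbreviation: GI50, concentration required for 50% inhibition of growth.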 The source made the active and inactive calls. Rule as the data show it: active = GI50 up to about 1.1 µM and inactive = higher.

Legend:
Assay in all cases: NCI-60 cell line screen, 48 h
[1] = system: 786-0
[2] = system: A498
[3] = system: A549
[4] = system: ACHN
[5] = system: BT-549
[6] = system: CAKI-1
[7] = system: CCRF-CEM
[8] = system: COLO 205
[9] = system: DU-145
[10] = system: EKVX
[11] = system: HCC 2998
[12] = system: HCT-116
[13] = system: HCT-15
[14] = system: HL-60
[15] = system: HOP-62
[16] = system: HOP-92
[17] = system: HT-29
[18] = system: Hs-578T
[19] = system: IGROV-1
[20] = system: K562
[21] = system: KM12
[22] = system: LOX IMVI
[23] = system: M14
[24] = system: MCF7
[25] = system: MDA-MB-231
[26] = system: MDA-MB-435
[27] = system: MDA-N
[28] = system: MOLT-4
[29] = system: Malme-3M
[30] = system: NCI-H226
[31] = system: NCI-H23
[32] = system: NCI-H460
[33] = system: NCI-H522
[34] = system: NCI/ADR-RES
[35] = system: OVCAR-3
[36] = system: OVCAR-4
[37] = system: OVCAR-5
[38] = system: OVCAR-8
[39] = system: PC-3
[40] = system: RPMI-8226
[41] = system: RXF 393
[42] = system: SF-268
[43] = system: SF-295
[44] = system: SF-539
[45] = system: SK-MEL-28
[46] = system: SK-MEL-2
[47] = system: SK-MEL-5
[48] = system: SK-OV-3
[49] = system: SN12C
[50] = system: SNB-19
[51] = system: SNB-75
[52] = system: SR
[53] = system: SW-620
[54] = system: T47D
[55] = system: TK-10
[56] = system: U-251
[57] = system: UACC-257
[58] = system: UACC-62
[59] = system: UO-31

O=NN(Cc1ccc(Cl)cc1)C(C(=O)O)c1ccccc1 (centres undefined)
GI50 [1]: > 100 µM (inactive)
GI50 [2]: > 100 µM (inactive)
GI50 [3]: > 100 µM (inactive)
GI50 [4]: > 100 µM (inactive)
GI50 [5]: > 100 µM (inactive)
GI50 [6]: > 100 µM (inactive)
GI50 [7]: > 100 µM (inactive)
GI50 [8]: > 100 µM (inactive)
GI50 [9]: > 100 µM (inactive)
GI50 [10]: > 100 µM (inactive)
GI50 [11]: 43.9 µM (inactive)
GI50 [12]: > 100 µM (inactive)
GI50 [13]: > 100 µM
GI50 [14]: > 100 µM (inactive)
GI50 [15]: > 100 µM (inactive)
GI50 [16]: > 100 µM (inactive)
GI50 [17]: > 100 µM (inactive)
GI50 [18]: > 100 µM (inactive)
GI50 [19]: > 100 µM (inactive)
GI50 [20]: > 100 µM (inactive)
GI50 [21]: > 100 µM (inactive)
GI50 [22]: > 100 µM (inactive)
GI50 [23]: > 100 µM (inactive)
GI50 [24]: > 100 µM (inactive)
GI50 [25]: > 100 µM (inactive)
GI50 [26]: > 100 µM (inactive)
GI50 [27]: > 100 µM (inactive)
GI50 [28]: > 100 µM (inactive)
GI50 [29]: > 100 µM (inactive)
GI50 [30]: > 100 µM (inactive)
GI50 [31]: > 100 µM (inactive)
GI50 [32]: > 100 µM (inactive)
GI50 [33]: > 100 µM (inactive)
GI50 [34]: > 100 µM (inactive)
GI50 [35]: > 100 µM (inactive)
GI50 [36]: > 100 µM (inactive)
GI50 [37]: > 100 µM (inactive)
GI50 [38]: > 100 µM (inactive)
GI50 [39]: > 100 µM (inactive)
GI50 [40]: > 100 µM (inactive)
GI50 [41]: > 100 µM (inactive)
GI50 [42]: > 100 µM (inactive)
GI50 [43]: > 100 µM (inactive)
GI50 [44]: > 100 µM (inactive)
GI50 [45]: > 100 µM (inactive)
GI50 [46]: > 100 µM (inactive)
GI50 [47]: > 100 µM (inactive)
GI50 [48]: > 100 µM (inactive)
GI50 [49]: > 100 µM (inactive)
GI50 [50]: > 100 µM (inactive)
GI50 [51]: > 100 µM (inactive)
GI50 [52]: > 100 µM (inactive)
GI50 [53]: > 100 µM (inactive)
GI50 [54]: > 100 µM (inactive)
GI50 [55]: > 100 µM (inactive)
GI50 [56]: > 100 µM (inactive)
GI50 [57]: 47.2 µM (inactive)
GI50 [58]: > 100 µM (inactive)
GI50 [59]: > 100 µM (inactive)
